Data as given in patent publication US12357644B2, “Acetyl salicylic acid composition for intravenous administration, its storage, production and use” (HYLORIS DEVELOPMENTS SA, priority 2022, dated 2025).

Experiments:
[1] = Assay and purity by HPLC on non-irradiated and gamma-irradiated ASA powder; assay type: physicochemical; details: after gamma irradiation
Procedure: The packaged ASA was end-sterilized by 25 or 55 kGy using a Cobalt60 irradiation source. Inside the installation, samples are placed on a turn table which is turned a quarter to expose each sample from each side at equal amounts of irradiation. For each 1 kGy, the sample is irradiated for 10 min.
After gamma-irradiation, the samples were again analysed for sterility according to Ph. Eur. 2.6.1., which is harmonized with USP 71. Potential degradation was monitored by determining assay and purity by HPLC.
Salicylic acid levels were less than 0.05%.

[2] = Salicylic acid content in sample solutions kept at benchtop; assay type: physicochemical; details: for Average conc. salicylic acid: no pH adjustment; for Average conc. salicylic acid / Average conc. of salicylic acid: benchtop
Procedure: In addition, storage stability screenings were conducted. The solutions prepared as previously described, were kept on a benchtop at 24+/−3° C. and 70% relative humidity. For media with no pH adjustment, the degradation of ASA is higher in ethanol as compared to the other media in the test (see Table 8). For media with pH adjustment, degradation of ASA in acidified TBA, acidified water and acidified water with mannitol were almost similar. Degradation in acidified TBA was higher than in acidified ethanol at 24+/−3° C. and 70% relative humidity (see Table 9).
It was observed that acidified ethanol has the highest solubility and stability. […] The finding of up to 72 hours stability is critical, because it allows manipulations during the manufacturing process and a manufacturing run of up to 3 days.

[3] = cited from earlier work

- Salicylic acid levels [1]: less than 0.05%
- impurities identified [1]: no impurities were identified
- Average conc. salicylic acid ([2]; 60 g/L mannitol, 0 hr): 0.262 mg/mL
- Average conc. salicylic acid ([2]; 60 g/L mannitol, 72 Hrs): 0.897 mg/mL
- Average conc. salicylic acid ([2]; 60 g/L mannitol, 6 hrs): 0.285 mg/mL
- Average conc. salicylic acid ([2]; 60 g/L mannitol, 12 hrs): 0.312 mg/mL
- Average conc. salicylic acid ([2]; 60 g/L mannitol, 24 hrs): 0.574 mg/mL
- Average conc. salicylic acid ([2]; 60 g/L mannitol, 48 hrs): 0.863 mg/mL
- Average conc. of salicylic acid ([2]; Acidified 60 g/L mannitol, 0 hr): 0.153 mg/mL
- Average conc. of salicylic acid ([2]; Acidified 60 g/L mannitol, 72 Hrs): 0.403 mg/mL
- Average conc. of salicylic acid ([2]; Acidified 60 g/L mannitol, 6 hrs): 0.167 mg/mL
- Average conc. of salicylic acid ([2]; Acidified 60 g/L mannitol, 12 hrs): 0.218 mg/mL
- Average conc. of salicylic acid ([2]; Acidified 60 g/L mannitol, 24 hrs): 0.260 mg/mL
- Average conc. of salicylic acid ([2]; Acidified 60 g/L mannitol, 48 hrs): 0.322 mg/mL
- Average conc. of salicylic acid ([2]; Acidified Tert-butyl alcohol, 0 hr): 0.237 mg/mL
- Average conc. of salicylic acid ([2]; Acidified Tert-butyl alcohol, 72 Hrs): 8.176 mg/mL
- Average conc. of salicylic acid ([2]; Acidified Tert-butyl alcohol, 6 hrs): 0.388 mg/mL
- Average conc. of salicylic acid ([2]; Acidified Tert-butyl alcohol, 12 hrs): 1.737 mg/mL
- Average conc. of salicylic acid ([2]; Acidified Tert-butyl alcohol, 24 hrs): 3.135 mg/mL
- Average conc. of salicylic acid ([2]; Acidified Tert-butyl alcohol, 48 hrs): 5.403 mg/mL
- Average conc. of salicylic acid ([2]; Acidified ethanol 96%, 0 hr): 0.901 mg/mL
- Average conc. of salicylic acid ([2]; Acidified ethanol 96%, 72 Hrs): 1.627 mg/mL
- Average conc. of salicylic acid ([2]; Acidified ethanol 96%, 6 hrs): 0.947 mg/mL
- Average conc. of salicylic acid ([2]; Acidified ethanol 96%, 12 hrs): 1.130 mg/mL
- Average conc. of salicylic acid ([2]; Acidified ethanol 96%, 24 hrs): 1.280 mg/mL
- Average conc. of salicylic acid ([2]; Acidified ethanol 96%, 48 hrs): 1.430 mg/mL
- Average conc. of salicylic acid ([2]; Acidified water, 0 hr): 0.162 mg/mL
- Average conc. of salicylic acid ([2]; Acidified water, 72 Hrs): 0.402 mg/mL
- Average conc. of salicylic acid ([2]; Acidified water, 6 hrs): 0.168 mg/mL
- Average conc. of salicylic acid ([2]; Acidified water, 12 hrs): 0.217 mg/mL
- Average conc. of salicylic acid ([2]; Acidified water, 24 hrs): 0.269 mg/mL
- Average conc. of salicylic acid ([2]; Acidified water, 48 hrs): 0.327 mg/mL
- Average conc. salicylic acid ([2]; Ethanol 96%, 0 hr): 1.092 mg/mL
- Average conc. salicylic acid ([2]; Ethanol 96%, 72 Hrs): 24.768 mg/mL
- Average conc. salicylic acid ([2]; Ethanol 96%, 6 hrs): 1.961 mg/mL
- Average conc. salicylic acid ([2]; Ethanol 96%, 12 hrs): 3.315 mg/mL
- Average conc. salicylic acid ([2]; Ethanol 96%, 24 hrs): 18.682 mg/mL
- Average conc. salicylic acid ([2]; Ethanol 96%, 48 hrs): 21.522 mg/mL
- Average conc. salicylic acid ([2]; Tert-butyl alcohol, 0 hr): 0.543 mg/mL
- Average conc. salicylic acid ([2]; Tert-butyl alcohol, 72 Hrs): 18.135 mg/mL
- Average conc. salicylic acid ([2]; Tert-butyl alcohol, 6 hrs): 0.988 mg/mL
- Average conc. salicylic acid ([2]; Tert-butyl alcohol, 12 hrs): 1.669 mg/mL
- Average conc. salicylic acid ([2]; Tert-butyl alcohol, 24 hrs): 9.261 mg/mL
- Average conc. salicylic acid ([2]; Tert-butyl alcohol, 48 hrs): 16.238 mg/mL
- Average conc. salicylic acid ([2]; Water, 0 hr): 0.269 mg/mL
- Average conc. salicylic acid ([2]; Water, 72 Hrs): 0.904 mg/mL
- Average conc. salicylic acid ([2]; Water, 6 hrs): 0.289 mg/mL
- Average conc. salicylic acid ([2]; Water, 12 hrs): 0.312 mg/mL
- Average conc. salicylic acid ([2]; Water, 24 hrs): 0.574 mg/mL
- Average conc. salicylic acid ([2]; Water, 48 hrs): 0.854 mg/mL
- % of salicylic acid ([2]; acidified ethanol, up to 72 hours (Limit Not more than 5%)): less than 2%
Structure (SMILES): CC(=O)Oc1ccccc1C(=O)O [ASA, Acetyl salicylic acid]
- solubility ([3]; above pH 5.5): above 100 mg/ml
- solubility in water ([3]; water): about 0.3%
